Source: ChEMBL document CHEMBL4825673, “Total and Semisyntheses of Polymyxin Analogues with 2-Thr or 10-Thr Modifications to Decipher the Structure-Activity Relationship and Improve the Antibacterial Activity” (J Med Chem, 2021)
Converted amounts (≈) assume the structure as drawn. Positions of bridges follow the written chain, without caps; N, C: chain ends. Non-standard residues stand in square brackets, D forms with d. Residues, ends and D or L forms follow the SMILES beside them. *: point of attachment. Octanoyl = CCCCCCCC(=O)*; Dab = NCC[C@H](N)C(=O)O

How the values were obtained:
Type in all cases: functional
Settings in all cases: read-out: MIC100
Pseudomonas aeruginosa [1] = test: Antibacterial activity against Pseudomonas aeruginosa PAO1 assessed as inhibition of bacterial growth incubated for 24 hrs by broth microdilution method
Escherichia coli = test: Antibacterial activity against Escherichia coli assessed as inhibition of bacterial growth incubated for 24 hrs by broth microdilution method
Klebsiella pneumoniae = test: Antibacterial activity against Klebsiella pneumoniae assessed as inhibition of bacterial growth incubated for 24 hrs by broth microdilution method
Acinetobacter baumannii = test: Antibacterial activity against Acinetobacter baumannii assessed as inhibition of bacterial growth incubated for 24 hrs by broth microdilution method
Pseudomonas aeruginosa [2] = test: Antibacterial activity against Pseudomonas aeruginosa assessed as inhibition of bacterial growth incubated for 24 hrs by broth microdilution method
Moraxella catarrhalis = test: Antibacterial activity against Moraxella catarrhalis assessed as inhibition of bacterial growth incubated for 24 hrs by broth microdilution method

MIC (Pseudomonas aeruginosa [1]) [µg/mL] | MIC (Escherichia coli) [µg/mL] | MIC (Klebsiella pneumoniae) [µg/mL] | MIC (Acinetobacter baumannii) [µg/mL] | MIC (Pseudomonas aeruginosa [2]) [µg/mL] | MIC (Moraxella catarrhalis) [µg/mL] | SMILES
2 (≈ 1.51 µM) | 0.25 (≈ 0.189 µM) | 2 (≈ 1.51 µM) | 0.125 (≈ 0.0946 µM) | 0.125 (≈ 0.0946 µM) | > 16 | CSCC[C@H](N)C(=O)O[C@H](C)[C@H](NC(=O)[C@H](CCN)NC(=O)CCCCC(C)C)C(=O)N[C@@H](CCN)C(=O)N[C@H]1CCNC(=O)[C@H]([C@@H](C)O)NC(=O)[C@H](CCN)NC(=O)[C@H](CCN)NC(=O)[C@H](CC(C)C)NC(=O)[C@@H](Cc2ccccc2)NC(=O)[C@H](CCN)NC1=O
2 (≈ 1.52 µM) | 0.5 (≈ 0.379 µM) | 2 (≈ 1.52 µM) | 0.06 (≈ 0.0455 µM) | 0.25 (≈ 0.19 µM) | > 32 | CC(C)CCCCC(=O)N[C@@H](CCN)C(=O)N[C@H](C(=O)N[C@@H](CCN)C(=O)N[C@H]1CCNC(=O)[C@H]([C@@H](C)O)NC(=O)[C@H](CCN)NC(=O)[C@H](CCN)NC(=O)[C@H](CC(C)C)NC(=O)[C@@H](Cc2ccccc2)NC(=O)[C@H](CCN)NC1=O)[C@H](C)OC(=O)[C@@H](N)CCC(N)=O
4 (≈ 2.99 µM) | 0.5 (≈ 0.374 µM) | 0.5 (≈ 0.374 µM) | 0.25 (≈ 0.187 µM) | 0.25 (≈ 0.187 µM) | > 32 | CC(C)CCCCC(=O)N[C@@H](CCN)C(=O)N[C@H](C(=O)N[C@@H](CCN)C(=O)N[C@H]1CCNC(=O)[C@H]([C@@H](C)O)NC(=O)[C@H](CCN)NC(=O)[C@H](CCN)NC(=O)[C@H](CC(C)C)NC(=O)[C@@H](Cc2ccccc2)NC(=O)[C@H](CCN)NC1=O)[C@@H](C)OC(=O)[C@@H](N)Cc1ccccc1
4 (≈ 3.37 µM) | 8 (≈ 6.74 µM) | 4 (≈ 3.37 µM) | 1 (≈ 0.842 µM) | 0.5 (≈ 0.421 µM) | 4 (≈ 3.37 µM) | CCCCCCCC(=O)N[C@@H](CCN)C(=O)N[C@H](C(=O)N[C@@H](CCN)C(=O)N[C@H]1CCNC(=O)[C@H](C(C)C)NC(=O)[C@H](CCN)NC(=O)[C@H](CCN)NC(=O)[C@H](CC(C)C)NC(=O)[C@@H](Cc2ccccc2)NC(=O)[C@H](CCN)NC1=O)[C@@H](C)O
2 (≈ 1.55 µM) | 0.25 (≈ 0.193 µM) | 1 (≈ 0.774 µM) | 0.125 (≈ 0.0967 µM) | 0.25 (≈ 0.193 µM) | 32 (≈ 24.8 µM) | CC(C)CCCCC(=O)N[C@@H](CCN)C(=O)N[C@H](C(=O)N[C@@H](CCN)C(=O)N[C@H]1CCNC(=O)[C@H]([C@@H](C)O)NC(=O)[C@H](CCN)NC(=O)[C@H](CCN)NC(=O)[C@H](CC(C)C)NC(=O)[C@@H](Cc2ccccc2)NC(=O)[C@H](CCN)NC1=O)[C@@H](C)OC(=O)[C@@H](N)CS
2 (≈ 1.45 µM) | 0.25 (≈ 0.182 µM) | 2 (≈ 1.45 µM) | 0.06 (≈ 0.0436 µM) | 0.125 (≈ 0.0909 µM) | > 32 | CC(C)CCCCC(=O)N[C@@H](CCN)C(=O)N[C@H](C(=O)N[C@@H](CCN)C(=O)N[C@H]1CCNC(=O)[C@H]([C@@H](C)O)NC(=O)[C@H](CCN)NC(=O)[C@H](CCN)NC(=O)[C@H](CC(C)C)NC(=O)[C@@H](Cc2ccccc2)NC(=O)[C@H](CCN)NC1=O)[C@@H](C)OC(=O)[C@@H](N)Cc1c[nH]c2ccccc12
1 (≈ 0.793 µM) | 0.25 (≈ 0.198 µM) | 2 (≈ 1.59 µM) | 0.125 (≈ 0.0992 µM) | 0.25 (≈ 0.198 µM) | > 32 | CC(C)CCCCC(=O)N[C@@H](CCN)C(=O)N[C@H](C(=O)N[C@@H](CCN)C(=O)N[C@H]1CCNC(=O)[C@H]([C@@H](C)O)NC(=O)[C@H](CCN)NC(=O)[C@H](CCN)NC(=O)[C@H](CC(C)C)NC(=O)[C@@H](Cc2ccccc2)NC(=O)[C@H](CCN)NC1=O)[C@@H](C)OC(=O)[C@H](C)N
64 (≈ 53.8 µM) | 8 (≈ 6.73 µM) | > 32 | 0.25 (≈ 0.21 µM) | 8 (≈ 6.73 µM) | 8 (≈ 6.73 µM) | CCCCCCCC(=O)N[C@@H](CCN)C(=O)N[C@H](C(=O)N[C@@H](CCN)C(=O)N[C@H]1CCNC(=O)[C@H](CCN)NC(=O)[C@H](CCN)NC(=O)[C@H](CCN)NC(=O)[C@H](CC(C)C)NC(=O)[C@@H](Cc2ccccc2)NC(=O)[C@H](CCN)NC1=O)[C@@H](C)O
2 (≈ 1.5 µM) | 0.25 (≈ 0.188 µM) | 2 (≈ 1.5 µM) | 0.06 (≈ 0.0451 µM) | 0.125 (≈ 0.0939 µM) | > 32 | CC[C@H](C)CCCCC(=O)N[C@@H](CCN)C(=O)N[C@H](C(=O)N[C@@H](CCN)C(=O)N[C@H]1CCNC(=O)[C@H]([C@@H](C)O)NC(=O)[C@H](CCN)NC(=O)[C@H](CCN)NC(=O)[C@H](CC(C)C)NC(=O)[C@@H](Cc2ccccc2)NC(=O)[C@H](CCN)NC1=O)[C@@H](C)OC(=O)[C@@H](N)CCC(N)=O
4 (≈ 3.33 µM) | 4 (≈ 3.33 µM) | 2 (≈ 1.66 µM) | 2 (≈ 1.66 µM) | 0.25 (≈ 0.208 µM) | 2 (≈ 1.66 µM) | CCCCCCCC(=O)N[C@@H](CCN)C(=O)N[C@H](C(=O)N[C@@H](CCN)C(=O)N[C@H]1CCNC(=O)[C@H](CC(C)C)NC(=O)[C@H](CCN)NC(=O)[C@H](CCN)NC(=O)[C@H](CC(C)C)NC(=O)[C@@H](Cc2ccccc2)NC(=O)[C@H](CCN)NC1=O)[C@@H](C)O (Octanoyl-[Dab]T[Dab][Dab][Dab][dF]L[Dab][Dab]L; lactam 4-C)
32 (≈ 25.6 µM) | 16 (≈ 12.8 µM) | > 64 | > 64 | 2 (≈ 1.6 µM) | 8 (≈ 6.39 µM) | CCCCCCCC(=O)N[C@@H](CCN)C(=O)NC(Cc1ccc(O)cc1)C(=O)N[C@@H](CCN)C(=O)N[C@H]1CCNC(=O)[C@H]([C@@H](C)O)NC(=O)[C@H](CCN)NC(=O)[C@H](CCN)NC(=O)[C@H](CC(C)C)NC(=O)[C@@H](Cc2ccccc2)NC(=O)[C@H](CCN)NC1=O (single isomer, unassigned)
